Where two headings read alike, the source gives them in different places. Marks after values point to notes of the source that are not given here.
How the values were obtained:
[1] = tested on: MPTP-treated C57BL/6 mice; experiment: Effect on locomotor activity in Parkinson's disease model in mice (MPTP); assay type: in vivo; details: for Amount of Active Movements (average count ± S.E.M): MPTP (+)
Description: The experiment was performed by using several groups of 7-weeks-old male C57BL/6 mice (weighing 20 to 24 g, Japan SLC), each group consisting of 8 mice. MPTP (Aldrich Chemical Co., Inc.) dissolved in a physiological saline solution (Otsuka Pharmaceutical Co., Ltd.) was intraperitoneally administered to each mouse once a day for five consecutive days at a dose of 30 mg/kg. A test compound was suspended in injectable distilled water (Otsuka Phamaceutical Co., Ltd.) containing Tween 80 [polyoxyethylene (20) sorbitan monooleate]. L-DOPA (Kyowa Hakko Kogyo Co., Ltd.) was suspended in 0.3% CMC (sodium carboxylmethylcellulose) and bromocriptine was suspended in injectable distilled water. Thirty minutes after the final MPTP administration, the test compound suspensions and the control suspension [injectable distilled water (Otsuka Pharmaceutical Co., Ltd.) containing Tween 80] containing no test compound were orally administered to separate groups of the mice (0.1 ml per 10 g of body weight). […] Statistical comparison of the values was carried out by Student's t-test.

[2] = tested on: Rats with a 6-Hydroxydopamine-Induced Unilateral Lesion of the Nigrostriatal Dopamine Pathway; experiment: Augmentation of apomorphine-induced contralateral rotation in 6-hydroxydopamine-lesioned rats; assay type: in vivo; details: test compound 1 mg/kg orally 30 minutes before apomorphine 0.1 mg/kg s.c.; 150 minutes
Description: Then, the animals were anesthetized with sodium pentobarbital (30 mg/kg, i.p., Dainippon Pharm. Co., Ltd.) and the nigrostriatal pathway was lesioned by injection of 6-hydroxydopamine hydrobromide (8 µg, Sigma Co.) into the left medial forebrain bundle. 6-Hydroxydopamine hydrobromide was dissolved in physiological saline containing 0.05% L-ascorbic acid (Wako Pure Chem. Industries, Ltd.) to make 2 µl of solution and injected over 3 minutes.
More than 10 days after surgery, each rat was placed in a plastic bowl (30 cm in diameter). […] The number of rotations was counted with an automated rotometer, in which each 180° turn was counted as a rotation.
Test compounds were suspended in 0.3% sodium carboxymethylcellulose and administered orally at a dose of 1 mg/kg 30 minutes before the injection of apomorphine (0.1 mg/kg, s.c.). The counts of rotations were summed up every 5 minutes for 150 minutes after apomorphine administration. The total rotation counts induced by apomorphine (0.1 mg/kg, s.c.) with and without a test compound were statistically compared, using the same animals. Rats were allowed to rest more than 5 days between each experiment. Statistical comparison of the values was carried out by Sign-Wilcoxon test.

dd-strain male mice = experiment: Acute toxicity test (minimum lethal dose, oral); assay type: in vivo; details: oral administration, three mice per group, mortality seven days after administration
Description: Test compounds were orally administered to groups of dd-strain male mice weighing 20 ± 1 g, each group consisting of three mice. Seven days after the administration, minimum lethal dose (MLD) of each compound was determined by observing the mortality.

[3] = tested on: Haloperidol-Induced Catalepsy; experiment: Effect on haloperidol-induced catalepsy; assay type: in vivo, mice; details: for ED50: Mus musculus, 1 h, read-out: ED₅₀; for Number of the Animals Showing Remission: of five mice, catalepsy score not more than 4 points; for Number of the Animals Showing Remission / Remission Rate (%) / Total Score: 10 mg/kg orally; for Remission Rate (%): rate of decrease in total score based on control group; for Total Score: total catalepsy score of five mice (25 points at the full), haloperidol 1.0 mg/kg i.p.
Outline: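 Mice got haloperidol 1.0 mg/kg i.p. in 0.3% CMC, then test compounds orally 1 hr later in 0.3% CMC or Tween 80/water. Catalepsy was scored on a 4.5 cm-high bar 1 hr after dosing; remission meant score ≤4 points. ED₅₀ came from Probit analysis.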

A₁ receptor = biological target: T1, A₁ receptor (Cavia porcellus, UniProt P47745); experiment: Adenosine A₁ receptor binding test (³H-CHA binding); set-up: species or system guinea pig; details: for inhibition at 100 µM: 10⁻⁴M; for inhibition at 100 µM / inhibition at 10 µM: guinea pig cerebrum; for inhibition at 10 µM: 10⁻⁵M
T1 construct: from tissue; host or cells: guinea pig cerebrum membrane preparation
T1 sequence (P47745 1-326): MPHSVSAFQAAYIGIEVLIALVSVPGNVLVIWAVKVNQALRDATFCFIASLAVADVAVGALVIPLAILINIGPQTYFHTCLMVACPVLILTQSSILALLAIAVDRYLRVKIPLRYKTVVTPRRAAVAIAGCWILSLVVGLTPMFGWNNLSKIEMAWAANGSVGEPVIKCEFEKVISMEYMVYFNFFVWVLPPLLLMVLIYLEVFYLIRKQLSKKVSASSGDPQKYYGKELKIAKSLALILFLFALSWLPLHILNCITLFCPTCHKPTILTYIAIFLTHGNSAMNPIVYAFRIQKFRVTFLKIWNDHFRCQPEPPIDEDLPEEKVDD
Description: Cerebrum of a guinea pig was suspended in ice-cooled 50 mM Tris hydroxymethyl aminomethane hydrochloride (Tris HCl) buffer (pH 7.7) by using Polytron homogenizer (manufactured by […] Co.). […] The suspension was centrifuged under the same conditions, and the final precipitate was suspended once again in 50 mM Tris HCl buffer to give a tissue concentration of 100 mg (wet weight)/ml. The tissue suspension was incubated at 37°C for 30 minutes in the presence of 0.02 unit/mg tissue of adenosine deaminase (manufactured by Sigma Co.). The tissue suspension was then centrifuged (50,000 x g, 10 minutes), and 50 mM Tris HCl buffer was added to the precipitate to adjust the concentration of tissue to 10 mg (wet weight)/ml. […] The mixture solution was allowed to stand at 25°C for 90 minutes and then rapidly filtered by suction through a glass fiber filter (GF/C manufactured by Whatman Co.). […] The radioactivity on the filter was determined with a liquid scintillation counter (manufactured by Packard Instrument Co.). […] The inhibition constant (Ki value) shown in the table was calculated by the Cheng-Prusoff's equation.

A₂ receptor [4] = biological target: T2, A₂ receptor (Rattus norvegicus, UniProt P30543); experiment: Adenosine A₂ receptor binding test (³H-NECA binding); details: for inhibition at 0.1 µM / inhibition at 1 µM / inhibition at 10 µM / inhibition at 100 µM: read-out: Inhibition (%) A₂ Receptor; for Ki: ³H-NECA binding
T2 construct: from tissue; host or cells: rat corpus striatum membrane preparation
T2 sequence (P30543 whole entry): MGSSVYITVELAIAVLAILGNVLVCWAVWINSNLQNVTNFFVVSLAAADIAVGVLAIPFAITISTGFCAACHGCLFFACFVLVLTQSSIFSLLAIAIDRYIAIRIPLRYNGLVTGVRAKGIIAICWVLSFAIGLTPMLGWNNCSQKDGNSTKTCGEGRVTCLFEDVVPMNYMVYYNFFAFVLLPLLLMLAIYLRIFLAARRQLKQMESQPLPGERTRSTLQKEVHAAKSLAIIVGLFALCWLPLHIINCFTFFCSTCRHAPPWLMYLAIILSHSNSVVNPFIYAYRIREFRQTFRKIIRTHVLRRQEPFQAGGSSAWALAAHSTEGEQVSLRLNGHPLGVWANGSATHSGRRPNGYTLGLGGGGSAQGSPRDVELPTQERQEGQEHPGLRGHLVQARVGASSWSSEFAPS

A₂ receptor [5] = biological target: T2, A₂ receptor; experiment: Adenosine A₂ receptor binding test (³H-CGS 21680 binding); details: [^3H]CGS 21680 was used, rat corpus striatum, read-out: A2 Receptor Inhibition (%)
Description: The similar procedure as in the above-described adenosine A₁ receptor binding test was repeated using rat corpus striatum to obtain the final precipitate of the tissue thereof. The precipitate was suspended in 50 mM Tris HCl buffer containing 10 mM magnesium chloride and 0.02 unit/mg tissue of adenosine deaminase (manufactured by Sigma Co.) to give a tissue concentration of 5 mg (wet weight)/ml.
The similar procedure as above was repeated to determine the radioactivity bound to the A₂ receptors using 50 µl of CGS 21680 labeled with tritium [³H-2-[p-(2-carboxyethyl)-phenethylamino]-5'-(N-ethylcarboxamide)adenosine: 40 Ci/mmol, manufactured by New England Nuclear Co. (J. Pharmacol. Exp. Ther., 251, 888 (1989)] (final concentration: 4.0 nM) in place of 50 µl of the mixture of N-ethylcarboxamidoadenosine labeled with tritium (³H-NECA: 26 Ci/mmol, manufactured by Amersham Co.) (final concentration: 3.8 nM) and cyclopentyladenosine (CPA, manufactured by Sigma Co.) (final concentration: 50 nM).
The inhibition rate of the test compound against the binding of A₂ receptors (³H-CGS 21680 binding) was calculated by the following equation: [formula] [Notes] • 1. "B" means the amount of radioactivity of ³H-CGS 21680 bound in the presence of a test compound at a concentration shown in Table 4. • 2. "T" means the amount of radioactivity of ³H-CGS 21680 bound in the absence of a test compound. • 3. "N" means the amount of radioactivity of ³H-CGS 21680 bound in the presence of 100 µM CPA.

[6] = test compound 2.5 mg/kg orally, 30 minutes starting 30 minutes after administration
[7] = ten mice at each dose, effective = catalepsy score 3 or less, Probit analysis, oral
[8] = test compound 10 mg/kg orally, 30 minutes starting 30 minutes after administration

| Structure (SMILES) | total amount of rotations (average count ± S.E.M.) test compound + apomorphine [2] [count] | MLD (dd-strain male mice) [mg/kg] | Amount of Active Movements (average count ± S.E.M) [1, 6] [count] | ED50 [3, 7] [mg/kg] | Number of the Animals Showing Remission [3] | Remission Rate (%) [3] [%] | Total Score [3] | inhibition at 100 µM (A₁ receptor) [%] | inhibition at 10 µM (A₁ receptor) [%] | inhibition at 0.1 µM (A₂ receptor [4]) [%] | inhibition at 1 µM (A₂ receptor [4]) [%] | inhibition at 10 µM (A₂ receptor [4]) [%] | inhibition at 100 µM (A₂ receptor [4]) [%] | Ki (A₂ receptor [4]) [nM] | other results |
| --- | --- | --- | --- | --- | --- | --- | --- | --- | --- | --- | --- | --- | --- | --- | --- |
| CC(C)C[C@H]1C(=O)N2CCC[C@H]2[C@]2(O)O[C@](NC(=O)[C@@H]3C=C4c5cccc6[nH]c(Br)c(c56)C[C@H]4N(C)C3)(C(C)C)C(=O)N12 [Bromocriptine, bromocriptine, reference compound] | – | – | – | – | – | – | – | – | – | – | – | – | – | – | inhibitory activity against the depression of locomotor activity caused by MPTP ([1]; mouse, in vivo): only a weak inhibitory activity |
| CCn1c(=O)c2c(nc(/C=C/c3ccc(OC)c(OC)c3)n2C)n(CC)c1=O [Compound 2, (E)-8-(3,4-Dimethoxystyryl)-1,3-diethyl-7-methylxanthine] | 1584 ± 196 | > 300 | 1265 ±316.9 | 0.03 | 5 | 80 | 2 | – | – | – | – | – | – | – | Amount of Active Movements (average count ± S.E.M) ([1]; test compound 0.63 mg/kg orally, 30 minutes starting 30 minutes after administration): 610 ±147.9 count |
| CCn1c(=O)c2c(nc(/C=C/c3ccc(OC)c(OC)c3OC)n2C)n(CC)c1=O [Compound 8, (E)-1,3-Diethyl-7-methyl-8-(2,3,4-trimethoxystyryl)xanthine] | 1406 ± 155 | > 300 | 800 ±156.8 | 0.23 | 5 | 92 | 2 | 94 | 89 | 80 | 99 | 95 | 74 | 3.9 | – |
| CCn1c(=O)c2c(nc(/C=C/c3ccc(OC)c(C)c3C)n2C)n(CC)c1=O [Compound 10, (E)-1,3-Diethyl-8-(4-methoxy-2,3-dimethylstyryl)-7-methylxanthine] | 1637 ± 127 | > 300 | – | 0.24 | 5 | 68 | – | 56 | 57 | 91 | 94 | 90 | 93 | 2 | Amount of Active Movements (average count ± S.E.M) [1, 8]: 754 ±174.2 count |
| CCn1c(=O)c2c(nc(/C=C/c3ccc(OC)c(C)c3OC)n2C)n(CC)c1=O [Compound 14, (E)-8-(2,4-Dimethoxy-3-methylstyryl)-1,3-diethyl-7-methylxanthine] | 1378 ± 216 | > 300 | – | – | 5 | 92 | 1 | – | – | – | – | – | – | 1.6 | Amount of Active Movements (average count ± S.E.M) [1, 8]: 817 ±163.1 count; ED50 ([3]; po): 0.6 mg/kg |
| COc1ccc(/C=C/c2nc3c(c(=O)n(C)c(=O)n3C)n2C)c(OC)c1OC [Compound 20, (E)-8-(2,3,4-Trimethoxystyryl)caffeine] | – | > 300 | 937 ±189.5 | 0.35 | 5 | 72 | 7 | 1 | 11 | 51 | 83 | 90 | 88 | 50 | Ki (A₁ receptor; Cheng-Prusoff's equation): > 100000 nM; Ratio (A₁/A₂) (A₂ receptor [4]; ratio of Ki values A₁/A₂): > 2,000 |
| CCn1c(=O)c2c(nc(/C=C/c3cc(OC)c4c(c3)OCO4)n2C)n(CC)c1=O [Compound 107, (E)-1,3-Diethyl-8-(3-methoxy-4,5-methylenedioxystyryl)-7-methylxanthine] | 1490 ± 146 | > 100 | 604 ±192.6 | 0.01 | 5 | 92 | 3 | – | – | – | – | – | – | – | inhibition at 1 µM (A₂ receptor [5]; 10^-6M): 84%; inhibition at 0.1 µM (A₂ receptor [5]; 10^-7M): 93% |
| N[C@@H](Cc1ccc(O)c(O)c1)C(=O)O [L-DOPA, reference compound] | – | – | – | – | – | – | – | – | – | – | – | – | – | – | Amount of Active Movements (average count ± S.E.M) ([1]; L-DOPA 300 mg/kg orally): 561 ±271.01^1) count; inhibitory activity against the depression of locomotor activity caused by MPTP ([1]; oral, L-DOPA 300 mg/kg, bromocriptine 40 mg/kg, Compounds (I) 10 mg/kg or less than 10 mg/kg): only a weak inhibitory activity |

From patent EP0590919A1, “Therapeutic agents for parkinson's disease” (KYOWA HAKKO KOGYO CO., LTD., priority 1992, dated 1994)
